Each structure is given as a SMILES string. Where a name gives a salt, the structure may show the parent alone.

The nature of the first assay: phenyl-p-benzoquinone writhing assay (analgesic activity). In kind it is in vivo, male mice (Charles River, CD-1). The following applies: Mus musculus, sc; mice, 20 mg/kg, s.c.; read-out: % Inhibition of writhing at a screening dose of 20 mg/kg, s.c. How it is done: The compounds of this invention are useful as analgesic agents due to their ability to alleviate pain in mammals. The procedure employed to determine analgetic utility is a modification of the phenyl-p-benzoquinone writhing assay in mice, a standard assay for analgesia [Proc. Soc. Exptl. Bio. Med., 95, 729 (1957)]. Pursuant to the modified procedure phenyl-p-benzoquinone (Eastman, 12.5 mg) is dissolved in 5 ml of 95% ethanol and the solution is diluted to a total volume of 100 ml with distilled water. The solution is administered to the subject mice intraperitoneally at a dose of 10 ml per kg of body weight. A characteristic "writhe"an inward rotation of one or more feet with twisting and turning of the trunk, drawing in of the abdominal wall, lordosis and arching of the back, is produced.
A total of 28 male mice (Charles River, CD-1), weighing 18 to 30 grams, are employed for a time response. The subject animals receive food and water ad libitum. Test compounds are dissolved in distilled water, or suspended in distilled water containing one drop of a suitable surfactant, such as Tween-80.
Four groups of five animals (20 animals) are given the test compound subcutaneously (s.c.) or orally (p.o.) at 15, 30, 45 and 60 minutes prior to administration of the phenyl-p-quinone. A control group (2 animals per group) receive an equal volume of the vehicle. After the administration of the phenyl-p-quinone, the mice are place separately in one liter beakers, and after five minutes, are observed for ten minutes. The number of writhes for each animal is recorded. The following formula is used to compute the percent inhibition: [formula]
The time period with the greatest percent of inhibition is considered the peak time.
(In general: An intraperitoneal irritant provokes the stretching counted in writhing tests.)
In the case of `COc1cc2onc(CCCN3[C@@H]4CC[C@H]3C[C@@H](Oc3c(F)c(F)c(F)c(F)c3F)C4)c2cc1OC` [(ENDO)-3-(2,3,4,5,6-PENTAFLUOROPHENOXY)-8-[(5,6-DIMETHOXY-1,2-BENZISOXAZOL- 3-YL)PROPYL]-8-AZABICYCLO[3.2.1]OCTANEHYDROCHLORIDE], the inhibition in vivo at 20 mg/kg amounted to 37%.
Still for that read-out and setting: with `Cc1[nH]c2ccccc2c1CCCN1[C@@H]2CC[C@H]1C[C@H](Oc1c(F)c(F)c(F)c(F)c1F)C2` [(EXO)-3-(2,3,4,5,6-PENTAFLUOROPHENOXY)-8-[3-(2-METHYLINDOL-3-YL)PROPYL]-8-AZABICYCLO[3.2.1]OCTANE HYDROCHLORIDE] the figure was 42%.
On the same count and under the same terms, with `CN1[C@@H]2CC[C@H]1C[C@H](Oc1c(F)c(F)c(F)c(F)c1F)C2` [exo-3-(2,3,4,5,6-pentafluorophenoxy)-8-methyl-8-azabicyclo[3.2.1]octane hydrochloride] the figure was 43%; with `CN(C)C(=O)N1[C@@H]2CC[C@H]1C[C@H](Oc1c(F)c(F)c(F)c(F)c1F)C2` [(exo)-3-(2,3,4,5,6-pentafluorophenoxy)-8-[(N,N-dimethylamino)carbonyl]-8-azabicyclo[3.2.1]octane], 39%; with `CN1[C@@H]2CC[C@H]1C[C@](Oc1c(F)c(F)c(F)c(F)c1F)(c1ccccc1)C2` [(endo)-3-(2,3,4,5,6-pentafluorophenoxy)-8-methyl-3-phenyl-8-azabicyclo[3.2.1]octane hydrochloride], 42%.
For the compound `Cc1[nH]c2ccccc2c1CCCN1[C@@H]2CC[C@H]1C[C@@H](Oc1c(F)c(F)c(F)c(F)c1F)C2` [(ENDO)-3-(2,3,4,5,6-PENTAFLUOROPHENOXY)-8-[3-(2-METHYLINDOL-3-YL)PROPYL]-8- AZABICYCLO[3.2.1]OCTANEHYDROCHLORIDE], the inhibition in vivo at 20 mg/kg was determined as 39%.
Still for that read-out and setting: with `NC(=O)N1[C@@H]2CC[C@H]1C[C@H](Oc1c(F)c(F)c(F)c(F)c1F)C2` [(exo)-8-(aminocarbonyl)-3-(2,3,4,5,6-pentafluorophenoxy)-8-azabicyclo[3.2.1]octane] the figure was 32%.
As to `COc1ccccc1N1CCN(CCCN2[C@@H]3CC[C@H]2C[C@@H](Oc2c(F)c(F)c(F)c(F)c2F)C3)CC1` [(endo)-3-(2,3,4,5,6-pentafluorophenoxy)-8-[3-[4-(2-methoxyphenyl)piperazin-1-yl]propyl]-8-azabicyclo[3.2.1]octane], the inhibition in vivo at 20 mg/kg is 55%.
Same read-out and setting: with `Fc1ccc2c(CCCN3[C@@H]4CC[C@H]3C[C@@H](Oc3c(F)c(F)c(F)c(F)c3F)C4)noc2c1` [(ENDO)-8-[3-(6-FLUORO-1,2-BENZISOXAZOL-3-YL)PROPYL]-3-(2,3,4,5,6-PENTAFLUOROPHENOXY)-8-AZABICYCLO[3.2.1OCTANE HYDROCHLORIDE] the figure was 45%.
Still for that read-out and setting: with `NC(=O)N1[C@@H]2CC[C@H]1C[C@@H](Oc1c(F)c(F)c(F)c(F)c1F)C2` [(endo)-8-aminocarbonyl-3-(2,3,4,5,6-pentafluorophenoxy)-8-azabicyclo[3.2.1]octane] the figure was 38%; with `CN1[C@@H]2CC[C@H]1C[C@@H](Oc1c(F)c(F)c(F)c(F)c1F)C2` [endo-3-(2,3,4,5,6-pentafluorophenoxy)-8-methyl-8-azabicyclo[3.2.1]octane oxalate], 49%.

The same assay, now with this note: Mus musculus, sc; mice; column head s.c.; read-out: ED50 (calculated dosage at which a 50% inhibition of writhing is achieved).
On to `CC(=O)Oc1ccccc1C(=O)O` [Asprin, reference compound], for which the ED50 is 32.8 mg/kg.

Another assay in a line: Metrazol lethality assay (MTZ), anticonvulsant activity. The assay is classed as in vivo, male mice (Charles River, CD-1). The following applies: Mus musculus, po, mice, protection against Metrazol lethality. On the procedure:
(§1) The compounds of this invention are also useful as anticonvulsants due to their anticonvulsant activity in mammals. Anticonvulsant activity is measured in male mice using the supramaximal electroshock (SES) assay described in Arch. Int. Pharmacodyn. 92, pp. 97-107, (1952) and the metrazol lethality assay (MTZ) described in J. Pharmacol. Exp. Ther., 81, 402 (1944).
Groups of male mice (Charles River, CD-1), weighing 18 to 30 grams are employed in the Metrazol lethality assay. Test compounds are dissolved in distilled water or if insoluble, suspended in water, to which a surfactant, such as Tween-80 is added. The test compounds are administered orally, the administered dose being dissolved or suspended in 10 ml of solution or suspension per kg of animal body weight. Control animals (2 mice/group) receive water or water and Tween-80, i.e., the vehicle for administration of the test compound. Metrazol (pentylenetetrazol) is dissolved in water (concentration 225 mg of Metrazol/10 ml of solution), and the solution is administered subcutaneously to groups of five animals each at one or more time intervals of 15, 30, 60, 90, or 120 minutes after administration of the test compound. The number of animal alive 15 minutes after treatment with Metrazol is determined and recorded. The following formula is employed to calculate the percent protection against Metrazol lethality. [formula] […]
For `CC(=O)N1[C@@H]2CC[C@H]1C[C@H](Oc1c(F)c(F)c(F)c(F)c1F)C2` [(exo)-8-acetyl-3-(2,3,4,5,6-pentafluorophenoxy)-8-azabicyclo[3.2.1]octane], the ED50 turned out to be 41.9 mg/kg.
Same read-out and setting: with `NC(=O)N1[C@@H]2CC[C@H]1C[C@@H](Oc1c(F)c(F)c(F)c(F)c1F)C2` [(endo)-8-aminocarbonyl-3-(2,3,4,5,6-pentafluorophenoxy)-8-azabicyclo[3.2.1]octane] the figure was 12.7 mg/kg.

A short description of another assay: supramaximal electroshock (SES) assay, anticonvulsant activity. In kind it is in vivo, male mice (Charles River, CD-1). The following applies: Mus musculus, ip, mice. How it is done:
as §1
Groups of male mice (Charles River, CD-1) weighing 18 to 30 g are employed in the SES assay. Test compounds are dissolved in distilled water, or if insoluble, suspended in water containing one drop of a surfactant, such as Tween-80. Test compounds are generally administered intraperitoneally at a dose of 10 ml of solution, or suspension, per kg of animal body weight. The output terminals of an A.C. shocker, which delivers 206 volts rms for 300 msec, are placed across the animals' eyes, an electrode paste coating assuring contact of the terminals with the eyes. The test compound is administered and thereafter the subject animals are shocked.
Protection is expressed as normalized percent inhibition relative to vehicle control. [formula] A time response is carried out using 6 animals per group. Animals are tested at 30, 60 and 120 minutes post drug. Additional time periods are tested if indicated by previous tests. A dose range determination is generally reserved for those compounds which inhibit convulsions by greater than about 45-55% at the screening dose employed at the time the test was performed. When the peak activity time has been determined, a dose response is initiated, using 10 animals per group at that time period.
The anticonvulsant activity of several of the compounds of this invention as per the SES and MTZ assay procedures is provided in Table 2.
(In general: Protection in the maximal electroshock model is a classic sign of anticonvulsant action.)
`CC(=O)N1[C@@H]2CC[C@H]1C[C@@H](Oc1c(F)c(F)c(F)c(F)c1F)C2` [endo-8-acetyl-3-(2,3,4,5,6-pentafluorophenoxy)-8-azabicyclo[3.2.1]octane] showed a median effective dose (ED50) of 35.1 mg/kg.
Still for that read-out and setting: with `CCC1(c2ccccc2)C(=O)NC(=O)NC1=O` [phenobarbital, reference compound] the figure was 8.4 mg/kg.
Same read-out and setting: with `NC(=O)N1[C@@H]2CC[C@H]1C[C@@H](Oc1c(F)c(F)c(F)c(F)c1F)C2` [(endo)-8-aminocarbonyl-3-(2,3,4,5,6-pentafluorophenoxy)-8-azabicyclo[3.2.1]octane] the figure was 25.2 mg/kg.

A further assay can be described thus: antihypertensive activity, indirect tail cuff method (SHR). In kind it is in vivo, spontaneous hypertensive rat. The following applies: treated three days, drop measured on third day, decrease in mean arterial blood pressure. On the procedure: The compounds of this invention are also useful as antihypertensive agents due to their ability to depress blood pressure in mammals. Antihypertensive activity is measured in the spontaneous hypertensive rat by the indirect tail cuff method described in "Methods in Pharmacology", A. Schwartz, Ed., Vol. I, Appleton-Century Crofts, New York, N.Y., 1971, p. 135. In this procedure a group of five animals is treated orally for three days with the test compound in relation to a control group of the same number. The drop in blood pressure is measured on the third day following administration. The antihypertensive activities of representative compounds, expressed as a decrease in mean arterial blood pressure (in mm Hg), are given in Table 3 along with the activity of a standard compound.
For the compound `N=C(N)NCCN1CCCCCCC1` [guanethidine, reference compound], the “mm dec. in BP at 50 mg/kg p.o.” value was 20 mm.

The next assay can be described thus: L-5-hydroxytryptophan (5-HTP) potentiation assay, antidepressant activity. As to conditions: Rattus norvegicus, ip, rats; read-out: 5-HTP Potentiation ED50. In kind it is in vivo, male Wistar rats. How it is done:
The compounds of this invention are also useful as antidepressants by virtue of their ability to elicit an antidepressant response in mammals. Antidepressant activity is determined by the L-5-hydroxytryptophan potentiation assay in rats described in Brit. J. Pharmacol., 20, pp. 106-120 (1963) and J. Med. Chem., 24, 74 (1980).
Groups of six male Wistar rats (150-200 grams each) are used in this assay. Pursuant to this procedure pargyline hydrochloride is prepared and administered four hours before testing by subcutaneous injection at 75 mg/kg in 1% saline and at dosage volume of 1.0 ml/kg. Thirty minutes before testing, drugs are prepared and dosed using distilled water and, if insoluble, a suitable surfactant is added. Control groups receive vehicle. Drugs are routinely administered intraperitoneally at a dosage volume of 10 ml/kg. L-5-hydroxytryptophan (5-HTP) is prepared at 1.0 mg/kg in distilled water and is administered intraperioneally in volumes proportional to 10 ml/kg. Drugs are administered in a randomized manner and 15 minutes post 5-HTP treatment, the animals are observed for 15 minutes.
Potentiation is expressed as normalized percent potentiation relative to vehicle control.
Consider `CN(C)CCC=C1c2ccccc2CCc2ccccc21` [amitriptyline, reference compound], for which the median effective dose (ED50) came to 7.1 mg/kg.

Still in this assay, the particulars now being: Rattus norvegicus, ip, read-out: 5-HTP Potentiation ED50.
For the compound `COc1cc2onc(CCCN3[C@@H]4CC[C@H]3C[C@@H](Oc3c(F)c(F)c(F)c(F)c3F)C4)c2cc1OC` [(ENDO)-3-(2,3,4,5,6-PENTAFLUOROPHENOXY)-8-[(5,6-DIMETHOXY-1,2-BENZISOXAZOL- 3-YL)PROPYL]-8-AZABICYCLO[3.2.1]OCTANEHYDROCHLORIDE], the 50% effective dose (ED50) came to 21.1 mg/kg.
Take `CP(C)(=O)CN1[C@@H]2CC[C@H]1C[C@@H](Oc1c(F)c(F)c(F)c(F)c1F)C2` [(endo)-3-(2,3,4,5,6-pentafluorophenoxy)-8-[(dimethylphosphinyl)methyl]-8-azabicyclo[3.2.1]octane]: the ED50 is 10.8 mg/kg.
Same read-out and setting: with `CN1[C@@H]2CC[C@H]1C[C@H](Oc1c(F)c(F)c(F)c(F)c1F)C2` [exo-3-(2,3,4,5,6-pentafluorophenoxy)-8-methyl-8-azabicyclo[3.2.1]octane hydrochloride] the figure was 13.4 mg/kg; with `Fc1c(F)c(F)c(O[C@H]2C[C@H]3CC[C@@H](C2)N3)c(F)c1F` [(endo)-3-(2,3,4,5,6-pentafluorophenoxy)-8-azabicyclo[3.2.1]octane hydrochloride], 15.6 mg/kg; with `CN1[C@@H]2CC[C@H]1C[C@@H](Oc1c(F)c(F)c(F)c(F)c1F)C2` [(endo)-3-(2,3,4,5,6-pentafluorophenoxy)-8-methyl-8-azabicyclo[3.2.1]octane], 16.2 mg/kg.
Still for that read-out and setting: with `Fc1c(F)c(F)c(O[C@@H]2C[C@H]3CC[C@@H](C2)N3)c(F)c1F` [(exo)-3-(2,3,4,5,6-pentafluorophenoxy)-8-azabicyclo[3.2.1]octane] the figure was 8.4 mg/kg.

What is called ED50 is the dose at which the effect has come halfway, by size or by number of responders.

(Values after patent publication US4861889A, “3-(2,3,4,5,6-pentafluorophenoxy)-8-azabicyclo[3.2.1]octanes” (Hoechst-Roussel Pharmaceuticals, Inc., priority 1988, dated 1989).)
